Paper PMC6813295, “A tumour-selective cascade activatable self-detained system for drug delivery and cancer imaging” (Nature Communications, 2019)
Where a SMILES comes first, the peptide text is derived from it. The star is where a group is joined. X1 = CC1(C)C(=CC=C2CCCC(C=CC3=[N+](CCCCCC(=O)O)c4ccccc4C3(C)C)=C2*)N(CCCCCC(=O)O)c2ccccc21

Key:
[1] = test system: healthy female Balb/c nude mice; test: Toxicology evaluation (blood biochemistry, haematology, histology); type: in vivo, mouse; details: 14 mg/kg
Method: The healthy female Balb/c nude mice (6–8 weeks, n = 3) treated with molecule 1 was systematically investigated over 15 days. The mice were sacrificed after treatment with molecule 1 at a dose of 14 mg/kg on the 3rd, 7th and 15th day for blood collection. The blood biochemistry and haematology analyses were performed by Vital River Laboratory Animal Technology Co. Ltd. The histology evaluation was performed by Servicebio. All the toxicology evaluation was carried out in blind manner. […]
mg/kg, n=3) at 3, 7 and 15 d. The control group was healthy mice group without treatment. a, As major indicators of liver function, alanine aminotransferase (ALT), alkaline phosphatase (ALP) and aspartate aminotransferase (AST) levels were evaluated at different time point s. b, Total Protein (TP), albumin (ALB) and globulin (GLO) concentration and A/G (ALB/GLO) levels were evaluated at different time points. c, The creatinine (CRE) and blood urea nitrogen (BUN) levels, important indicators of kidney function, were evaluated at different time points. d, Time-course changes of haematology data, including i) white blood cells, ii) red blood cells, iii) haemoglobin, iv) mean corpuscular volume, v) mean corpuscular haemoglobin, vi) mean corpuscular haemoglobin concentration, vii) platelets and viii) haematocrit after treated with molecule 1 (14 mg/kg) treatment comparing with normal range (green backgrounds). Data are presented as mean ± s.d.
(n=3). e, Histology evaluation of the major organs (liver, spleen, kidney, heart and lung) were collected from the control group without treatment and molecule 1 treated (12 h post injection) group. Scale bars, 100 μm.

H460 tumour-bearing mice = test: Tumour penetration, distance from CD31-stained vessels in frozen tumour sections; type: in vivo, mouse
Method: Fig. 5 Tumour penetrations of TCASS. a 3D reconstruction PA images of tumour-bearing mice injected with molecule 1, SiO2 nanoparticles (SiO2 NPs) and liposome labelled by Cy. The degrees of penetration into the tumour were calculated. To better illustrate the penetration extent of molecule 1, SiO2 nanoparticles (SiO2 NPs) and liposome labelled by Cy, the tumour tissue was divided into five parts with identical radius intervals, which indicated the trend from the tumour edge to the interior (the red dashed circles show the tumour margin, and the grey dashed circles show the normalized distance from the tumour edge). b Quantification of the PA signal intensity. The PA intensity in the intratumoural distribution area between neighbouring polygons was normalized by the corresponding area. Data are presented as the mean ± s.d. (n = 3). ***p < 0.001, p values were performed with one-way ANOVA followed by post hoc Tukey’s test for the indicated comparison. c Frozen sections of tumour removed after treatment with molecule 1, SiO2 NPs and liposome labelled by Cy for 12 h. The tumour cell nucleus and vessels were stained with DAPI and FITC-tagged CD31 antibody, respectively. d Quantification of the penetrative distance of molecule 1, SiO2 NPs and liposome labelled by Cy from the tumour vessels. Data are presented as the mean ± s.d. (n = 8). ***p < 0.001, p values were performed with one-way ANOVA followed by post hoc Tukey’s test for the indicated comparison. Scale bar: a 2 mm; c 50 μm
All animal experiments were performed as previously described. H460 cells were also subcutaneously implanted on the right flank of xenografts mice. After the tumour had developed, Molecule 1 (14 mg/kg, n = 3), liposome and SiO2 nanoparticles labelled by Cy (the same molar amount of Cy, n = 3) dissolved into PBS was intravenously injected through tail vein of mice. The control group was PBS at the same conditions. […] In order to quantify the PA signal intensity, the intratumoral distribution area was normalized with the tumour regions.

`CC[C@H](C)[C@H](NC(=O)[C@@H]1CCCN1C(=O)[C@@H](NC(=O)[C@H](C)N)C(C)C)C(=O)N[C@@H](C)C(=O)N[C@@H](CCC(N)=O)C(=O)N[C@@H](CCCCN)C(=O)N[C@@H](CC(=O)O)C(=O)N[C@@H](CCC(=O)O)C(=O)N[C@H](C(=O)N[C@@H](CC(=O)O)C(=O)N[C@@H](CCCCN)C(=O)N[C@@H](CC(C)C)C(=O)N[C@H](C(=O)N[C@@H](Cc1ccccc1)C(=O)N[C@@H](Cc1ccccc1)C(=O)N[C@@H](C)C(=O)N[C@@H](CCC(=O)O)C(=O)N[C@@H](CSC1=C(C=CC2=[N+](CCCCCC(=O)O)c3ccccc3C2(C)C)CCCC1=CC=C1N(CCCCCC(=O)O)c2ccccc2C1(C)C)C(=O)NCC(=O)O)C(C)C)C(C)C` [molecule 1] (H-AVPIAQKDEVDKLVFFAEC(X1)G-OH) was tested, and the “histology evaluation of organs” value [1] was “slightly enlarged splenic corpuscle and expanded germinal centres”, the “signs of acute toxicity within 15 days” value [1] was “did not notice any obvious signs of acute toxicity” and the “creatinine (CRE) and blood urea nitrogen (BUN) levels” value ([1]; days 3, 7 and 15, n = 3) was “within the normal range”. For the same compound, the “liver function markers (ALT, AST, ALP, albumin concentration)” value ([1]; days 3, 7 and 15, n = 3) was “within reference normal ranges”, the “penetrative distance of signal from the tumour blood vessels” value (H460 tumour-bearing mice; 12 h post IV injection, 14 mg/kg or same molar amount of Cy, frozen sections, mean ± s.d. n = 8) was “approximately 67.4 ± 10.3 μm” and the “penetration distance of molecule 1 relative to SiO2 nanoparticles” value (H460 tumour-bearing mice; 12 h post injection) was roughly 10 times. The “penetration distance of molecule 1 relative to liposomes” value (H460 tumour-bearing mice; 12 h post injection) was “approximately 13 times”.
